Measurements published in US20060100431A1, “Biologically active compounds” (Amura Therapeutics Limited, priority 2002, published 2006).

What was measured:
Type in all cases: biochemical
Wild-type cruzipain = Wild-type cruzipain (Trypanosoma cruzi, UniProt P25779); test: Trypanosoma cruzi cruzipain peptidase activity assay (Ki); details: read-out: Ki, inhibitors of cruzain and cruzipains
In short: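 Native cruzipain from T. cruzi Dm28 epimastigotes, 2.5 nM, in 100 mM sodium phosphate pH 6.75 with 1 mM EDTA and 10 mM L-cysteine, 25 °C, DMSO <1%. Rates taken from continuous fluorogenic substrate read; Ki by regression assuming reversible pure-competitive inhibition.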

Bovine cathepsin S = biological target: T1, Bovine cathepsin S (Bos taurus, UniProt P25326); test: Cathepsin S peptidase activity assay, bovine enzyme (Ki); details: species of cathepsin S not given; read-out: Ki, inhibitors of cathepsin S
T1 construct: purchased CN Biosciences
T1 sequence (P25326 115-331): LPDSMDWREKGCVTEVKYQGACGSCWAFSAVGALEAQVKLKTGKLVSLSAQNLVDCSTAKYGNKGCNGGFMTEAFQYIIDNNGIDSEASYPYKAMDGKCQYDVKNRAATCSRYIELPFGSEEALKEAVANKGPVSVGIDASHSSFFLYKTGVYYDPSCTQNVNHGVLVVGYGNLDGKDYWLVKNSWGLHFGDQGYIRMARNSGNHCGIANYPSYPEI
Description: Unless otherwise stated, all general chemicals and biochemicals were purchased from either the Sigma Chemical Company, Poole, Dorset, U.K or from Fisher Scientific UK, Loughborough, Leicestershire, U.K. Absorbance assays were carried out in flat-bottomed 96-well plates (Spectra; Greiner Bio-One Ltd., Stonehouse, Gloucestershire, U.K.) using a SpectraMax PLUS384 plate reader (Molecular Devices, Crawley, U.K.). Fluorescence high throughput assays were carried out in either 384-well microtitre plates (Corning Costar 3705 plates, Fisher Scientific) or 96-well ‘U’ bottomed Microfluor W1 microtitre plates (Thermo Labsystems, Ashford, Middlesex, U.K.). Fluorescence assays were monitored using a SpectraMax Gemini fluorescence plate reader (Molecular Devices). For substrates employing either a 7-amino-4-methylcoumarin (AMC) or a 7-amino-4-trifluoromethylcoumarin (AFC) fluorophore, assays were monitored at an excitation wavelength of 365 nm and an emission wavelength of 450 nm and the fluorescence plate reader calibrated with AMC. For substrates employing a 3-amino-benzoyl (Abz) fluorophore, assays were monitored at an excitation wavelength of 310 nm and an emission wavelength of 445 nm; the fluorescence plate reader calibrated with 3-amino-benzamide (Fluka). Unless otherwise indicated, all the peptidase substrates were purchased from Bachem UK, St Helens, Merseyside, UK. Substrates utilizing fluorescence resonance energy transfer methodology (i.e. FRET-based substrates) were synthesized at Incenta Limited using published methods (Atherton & Sheppard, Solid Phase Peptide Synthesis, IRL Press, Oxford, U.K, 1989) and employed Abz (2-aminobenzoyl) as the fluorescence donor and 3-nitro-tyrosine [Tyr(NO2)] as the fluorescence quencher (Meldal, M. and Breddam, K., Anal. Biochem, 195, 141-147, 1991). Hydroxyethylpiperazine ethanesulfonate (HEPES), tris-hydroxylmethyl aminomethane (tris) base, bis-tris-propane and all the biological detergents (e.g. CHAPS, zwittergents, etc.) were purchased from CN Biosciences UK, Beeston, Nottinghamshire, U.K. Glycerol was purchased from Amersham Pharmacia Biotech, Little Chalfont, Buckinghamshire, U.K. Stock solutions of substrate or inhibitor were made up to 10 mM in 100% dimethylsulfoxide (DMSO) (Rathburns, Glasgow, U.K.) and diluted as appropriately required. In all cases the DMSO concentration in the assays was maintained at less than 1% (vol./vol.).
Assay protocols were based on literature precedent (Table 4; Barrett, A. J., Rawlings, N. D. and Woessner, J. F., 1998, Handbook of Proteolytic Enzymes, Academic Press, London and references therein) and modified as required to suit local assay protocols. Enzyme was added as required to initiate the reaction and the activity, as judged by the change in fluorescence upon conversion of substrate to product, was monitored over time. All assays were carried out at 25±1° C.
Bovine cathepsin S, human cathepsin L, human cathepsin H and human cathepsin B were obtained from CN Biosciences. Recombinant human cathepsin S, human cathepsin K and human cathepsin X were obtained from Dr. Boris Turk (Josef Stefan Institute, Ljubljana, Slovenia). Unless otherwise stated, all peptidase activity assays were carried out in 10 mM bis-tris-propane (BTP), pH 6.5 containing 1 mM EDTA, 5 mM 2-mercaptoethanol and 1 mM CaCl2. Human cathepsin H activity assays were carried out in 10 mM BTP pH 6.5, 142 mM NaCl2, 1 mM CaCl2, 1 mM EDTA, 1 mM DTT, 0.035 mM Zwittergent 3-16. Human cathepsin K assays were carried out in 100 mM sodium acetate; pH 5.5 containing 20 mM L-cysteine and 1 mM EDTA (Bossard, M. J., et. al., J. Biol. Chem., 21, 12517-12524, 1996). Human cathepsin X assays were carried out in 100 mM sodium acetate; pH 5.5 containing 20 mM L-cysteine; 0.05% (w/v) Brij 35 and 1 mM EDTA (Santamaria, I., et. al., J. Biol. Chem., 273, 16816-16823, 1998; Klemencic, J, et al., Eur. J. Biochem., 267, 5404-5412, 2000).

human cathepsin L = biological target: T2, human cathepsin L (Homo sapiens, UniProt P07711); test: Cathepsin L peptidase activity assay (Ki); details: read-out: Ki, inhibitors of cathepsin L
T2 construct: purchased CN Biosciences
T2 sequence (P07711 114-333): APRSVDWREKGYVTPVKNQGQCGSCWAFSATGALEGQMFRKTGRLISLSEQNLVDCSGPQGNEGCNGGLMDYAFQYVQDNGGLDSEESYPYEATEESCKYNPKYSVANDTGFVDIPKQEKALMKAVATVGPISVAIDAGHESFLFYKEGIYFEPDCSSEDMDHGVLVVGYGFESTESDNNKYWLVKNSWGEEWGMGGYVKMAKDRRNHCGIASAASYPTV
In short: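 Run at 25±1° C with DMSO under 1%: buffer was 10 mM BTP pH 6.5 containing 1 mM EDTA, 1 mM CaCl2 and 5 mM 2-mercaptoethanol. Enzyme (1 nM cathepsin L) was added last to start hydrolysis of Ac-Phe-Arg-AMC held at KM^app (~20 μM), followed kinetically by fluorescence at 365/450 nm.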

CPB2.8ΔCTE = biological target: T3, CPB2.8ΔCTE (Leishmania mexicana, UniProt P36400); test: Leishmania mexicana cysteine protease B (CPB) peptidase activity assay (Ki); details: Ki, inhibitors of Leismania mexicana CPB protease
T3 construct: Wild-type recombinant CPB without the C-terminal extention (i.e. CPB2.8ΔCTE); Dr. Jeremy Mottram (Wellcome Centre for Molecular Parasitology, University of Glasgow)
T3 sequence (P36400 126-343, stated change not applied): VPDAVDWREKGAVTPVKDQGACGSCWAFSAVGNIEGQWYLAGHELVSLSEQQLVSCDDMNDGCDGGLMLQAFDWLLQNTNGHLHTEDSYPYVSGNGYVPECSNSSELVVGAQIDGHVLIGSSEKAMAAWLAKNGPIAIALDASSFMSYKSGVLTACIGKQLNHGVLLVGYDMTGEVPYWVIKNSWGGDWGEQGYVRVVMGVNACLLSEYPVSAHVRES
In short: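 Apparent Ki was derived by regression of activity against inhibitor concentration, assuming pure-competitive reversible binding. Reaction: 0.25 nM CPB lacking the C-terminal extension, pH 5.5 acetate buffer (1 mM EDTA, 200 mM NaCl, 10 mM DTT), 25 °C, followed by continuous substrate fluorescence.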

Measured: Ki

Sequence of Wild-type cruzipain (P25779 whole entry): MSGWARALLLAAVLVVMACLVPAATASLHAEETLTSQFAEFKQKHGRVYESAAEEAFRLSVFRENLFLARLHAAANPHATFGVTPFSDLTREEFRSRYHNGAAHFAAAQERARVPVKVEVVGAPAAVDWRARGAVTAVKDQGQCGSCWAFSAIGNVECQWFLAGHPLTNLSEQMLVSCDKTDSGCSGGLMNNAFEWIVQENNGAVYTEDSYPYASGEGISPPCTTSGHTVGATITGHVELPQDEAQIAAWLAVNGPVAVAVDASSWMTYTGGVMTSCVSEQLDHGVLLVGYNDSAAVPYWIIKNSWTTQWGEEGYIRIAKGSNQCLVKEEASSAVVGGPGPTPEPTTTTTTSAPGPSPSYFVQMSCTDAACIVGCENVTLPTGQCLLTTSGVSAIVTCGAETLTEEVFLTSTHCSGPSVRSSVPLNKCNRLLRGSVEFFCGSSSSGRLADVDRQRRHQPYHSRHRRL

CC(C)C[C@H](NC(=O)c1ccc2ccccc2n1)C(=O)N1CC[C@@H]2[C@H]1C(=O)CN2C(=O)c1ccccc1 [Example 8, (3aR,6aS)-Quinoline-2-carboxylic acid [(1S)-1-(4-benzoyl-6-oxo-hexahydro-pyrrolo[3,2-b]pyrrole-1-carbonyl)-3-methyl-butyl]-amide]
< 5 µM: Wild-type cruzipain | Bovine cathepsin S | human cathepsin L

CC(C)C[C@H](NC(=O)c1cc2ccccc2o1)C(=O)N1CC[C@@H]2[C@H]1C(=O)CN2C(=O)c1ccccc1 [Example 9, (3aR,6aS)-Benzofuran-2-carboxylic acid [(1S)-1-(4-benzoyl-6-oxo-hexahydropyrrolo[3,2-b]pyrrole-1-carbonyl)-3-methyl-butyl]-amide]
< 5 µM: Wild-type cruzipain | Bovine cathepsin S | human cathepsin L

Cc1c(C(=O)N[C@@H](CC(C)C)C(=O)N2CC[C@@H]3[C@H]2C(=O)CN3C(=O)c2ccccc2)oc2ccccc12 [Example 10, (3aR,6aS)-3-Methyl-benzofuran-2-carboxylic acid [(1S)-1-(4-benzoyl-6-oxo-hexahydro-pyrrolo[3,2-b]pyrrole-1-carbonyl)-3-methyl-butyl]-amide]
< 5 µM: Wild-type cruzipain | Bovine cathepsin S | human cathepsin L

CC(C)C[C@H](NC(=O)c1cnc2ccccc2n1)C(=O)N1CC[C@@H]2[C@H]1C(=O)CN2C(=O)c1ccccc1 [Example 12, (3aR,6aS)-Quinoxaline-2-carboxylic acid [(1S)-1-(4-benzoyl-6-oxo-hexahydro-pyrrolo[3,2-b]pyrrole-1-carbonyl)-3-methyl-butyl]-amide]
< 5 µM: Wild-type cruzipain | Bovine cathepsin S | human cathepsin L

CC(C)C[C@H](NC(=O)c1cc2ccccc2o1)C(=O)N1CC[C@@H]2[C@H]1C(=O)CN2C(=O)c1cccnc1 [Example 16, (3aR,6aS)-Benzofuran-2-carboxylic acid {(1S)-3-methyl-1-[6-oxo-4-(pyridine-3-carbonyl)-hexahydro-pyrrolo[3,2-b]pyrrole-1-carbonyl]-butyl}-amide]
< 5 µM: all assays above

Cc1c(C(=O)N[C@@H](CC(C)C)C(=O)N2CC[C@@H]3[C@H]2C(=O)CN3C(=O)c2cccnc2)oc2ccccc12 [Example 17, (3aR,6aS)-3-Methyl-benzofuran-2-carboxylic acid {(1S)-3-methyl-1-[6-oxo-4-(pyridine-3-carbonyl)-hexahydro-pyrrolo[3,2-b]pyrrole-1-carbonyl]-butyl}-amide]
< 5 µM: all assays above

CC(C)C[C@H](NC(=O)OCc1ccccc1)C(=O)N1CC(=O)[C@@H]2[C@H]1CCN2C(=O)[C@H](CC(C)C)NC(=O)c1ccc(N(C)C)cc1 [Example 37, (3aS,6aR)-((1S)-1-{4-[(2S)-2-(4-Dimethylamino-benzoylamino)-4-methyl-pentanoyl]-3-oxo-hexahydro-pyrrolo[3,2-b]pyrrole-1-carbonyl}-3-methyl-butyl)-carbamic acid benzyl ester]
< 5 µM: all assays above

COc1cccc(C(=O)N2CC(=O)[C@@H]3[C@H]2CCN3C(=O)[C@H](CC(C)C)NC(=O)c2ccc(N(C)C)cc2)c1 [Example 65, (3aR,6aS)-4-Dimethylamino-N-{(1S)-1-[4-(3-methoxy-benzoyl)-6-oxo-hexahydro-pyrrolo[3,2-b]pyrrole-1-carbonyl]-3-methyl-butyl}-benzamide]
< 5 µM: all assays above

CC(C)C[C@H](NC(=O)c1ccc(N2CCOCC2)cc1)C(=O)N1CC[C@@H]2[C@H]1C(=O)CN2C(=O)c1ccccc1 [Example 85, (3aR,6aS)-N-[(1S)-1-(4-Benzoyl-6-oxo-hexahydro-pyrrolo[3,2-b]pyrrole-1-carbonyl)-3-methyl-butyl]-4-morpholin-4-yl-benzamide]
< 5 µM: all assays above

CC(C)C[C@H](NC(=O)c1ccc2ncccc2c1)C(=O)N1CC[C@@H]2[C@H]1C(=O)CN2C(=O)c1ccccc1 [Example 86, (3aR,6aS)-Quinoline-6-carboxylic acid [(1S)-1-(4-benzoyl-6-oxo-hexahydro-pyrrolo[3,2-b]pyrrole-1-carbonyl)-3-methyl-butyl]-amide]
< 5 µM: all assays above

CC(C)C[C@H](NC(=O)c1ccc2cc[nH]c2c1)C(=O)N1CC[C@@H]2[C@H]1C(=O)CN2C(=O)c1ccccc1 [Example 88, (3aR,6aS)-1H-Indole-6-carboxylic acid [(1S)-1-(4-benzoyl-6-oxo-hexahydro-pyrrolo[3,2-b]pyrrole-1-carbonyl)-3-methyl-butyl]-amide]
< 5 µM: all assays above

CC(C)C[C@H](NC(=O)c1ccc2[nH]ccc2c1)C(=O)N1CC[C@@H]2[C@H]1C(=O)CN2C(=O)c1ccccc1 [Example 89, (3aR,6aS)-1H-Indole-5-carboxylic acid [(1S)-1-(4-benzoyl-6-oxo-hexahydro-pyrrolo[3,2-b]pyrrole-1-carbonyl)-3-methyl-butyl]-amide]
< 5 µM: all assays above

CC(C)C[C@H](NC(=O)c1cccc(CN)c1)C(=O)N1CC[C@@H]2[C@H]1C(=O)CN2C(=O)c1ccccc1 [Example 92, (3aR,6aS)-3-Aminomethyl-N-[(1S)-1-(4-benzoyl-6-oxo-hexahydro-pyrrolo[3,2-b]pyrrole-1-carbonyl)-3-methyl-butyl]-benzamide]
< 5 µM: all assays above
